We go through two compounds from patent US20040037775A1, “Leukocyte internalized peptide-drug conjugates” (priority 2000, published 2004).

Where two headings read alike, the source gives them in different places. Starred links: 1 amine or outer side, 2 acyl side, 3 side chain; linkers in the order of their positions; H or OH if unused. Positions of bridges follow the written chain, without caps; N, C: chain ends. Non-standard residues stand in square brackets, D forms with d. Residues, ends and D or L forms follow the SMILES beside them. *: point of attachment. DAMPA = CN(Cc1cnc2nc(N)nc(N)c2n1)c1ccc(C(=O)*)cc1; γGlu = O=C(O)[C@H](CCC(=O)[*:2])N[*:1]; Pen = CC(C)(S)[C@H](N)C(=O)O A value given as a limit tells only on which side of the number the result lay.

One series concerns KB epithelial cells. Nature of the series: KB MTT assay (96 h). Type of series: cell-based, human. Here is the method: Human KB epithelial l cells: The human KB epithelial cell line was a gift from Dr Gerrit Jansen (University Free Hospital, Amsterdam, Netherlands) and was developed to overexpress the membrane folate binding protein (mFBP). Cells were cultured in RPMI 1640 medium without folic acid and supplemented with 10% heat inactivated dialyzed FCS (50 mL volume), 0.2 mL of 50 μg/mL gentamicin, 1 mL of 50 μg/mL amphotericin B, and 5 mL of 200 mM L-glutamine. The folate source, 20 nM (R,S)-LV, was added to supply cells with adequate growth conditions.
The cytotoxicity of MTX-peptide conjugates was evaluated in different cell lines, lincluding Molt-3 and L1210 T-cells, and KB epithelial cells. […] After 72 h of growth, the relative numbers of viable cells were determined according to the manufacture's protocols for measuring cytotoxicity using a Dojindo Cytotoxicity Assay Cell counting Kit-8 (CCK-8). To measure the cell viability, 10 μL of CCK-8 was added to each well and the plate was incubated for 4 h. After incubation, the absorbance at 450 nm was measured using a UV plate reader. Cell growth in the presence of different drug concentrations was calculated relative to the value obtained in the absence of the drug. […] Growth inhibition was determined by counting the cells on a Z2 model Coulter Counter (Coulter Electronics Ltd, Luton, Beds, UK). The IC50 values were calculated using Graphpad Prism software (Graphpad Software, San Diego, Calif.). […] Cells were incubated for 96 h to allow control cells to divide approximately four times before cell viability was determined by MTT assay.
The number of viable cells after a 96-h incubation was determined by assessing their ability to reduce MTT ([…]). […] The absorbance of the solution in each well was measured at 540 nm on a MCC/340 model Titertak Multiscan® plate reader (Labsystems/Flow Laboratories, Oxfordshire, UK). The results were analyzed using Ascent Research software v.2.1 (Labsystems, UK).
For orientation: Tetrazolium dyes change colour on reduction, which living cells bring about.

Series [1] concerns dihydrofolate reductase enzyme (DHFR). Description: DHFR inhibition assay (spectrophotometric NADPH loss, Dixon plots). Type of series: biochemical. The following applies: for Ymax: from Dixon plots. Here is the method: Into a 2.0 mL cuvette, a 1.0 mL solution of 0.11 mM β-NADPH and 33 μL of 2.3 mM DHFA were aliquoted and allowed to equilibrate. […] To begin the assay, 33 μL of DHFR (0.12-0.25 unit/mL with 0.1% BSA) was added to the reaction mixture. The absorbance of the reaction mixture was then recorded continuously for 5 min at 340 nm and the enzyme activity was determined by the rate of NADPH loss. Enzyme activity was determined for three different fixed concentrations of substrate (0.19, 1.9 and 10.0 mM DHFA).

In the next series the test system is L1210-1565 cells. Description: cell cycle analysis in L1210-1565 cells (PI staining, flow cytometry). Type of series: cell-based, mouse. The conditions noted are these: 1 μM. As for the experimental part:
The cell pellets were resuspended and fixed in 2.5 mL of ice-cold 70% ethanol. These pellets were stored at 4° C. before analysis using flow cytometry.
PI staining of fixed cell pellets for cell cycle analysis: One day prior to analysis, cells were centrifuged at 450×g (2500 rpm) for 5 min at room temperature and the pellets re-suspended in 0.8 mL PBS followed by addition of 0.1 mL each of 1 mg/mL ribonuclease A (RNase A; Sigma) and 0.4 mg/mL PI (Sigma). RNA digestion by RNase A is required to avoid the intercalation of PI into the double-stranded regions of this nucleic acid, which interfers with the measurement of DNA. After a 30 min incubation at 37° C., samples were wrapped in aluminum foil and stored at 4° C. overnight. Cell cycle analysis was performed using a Coulter EPICS Elite ESP (Beckman Coulter, Buckinghamshire, UK) equipped with an argon-ion laser tuned to 488 nm and red fluorescence collected at 630 nm. DNA histograms were produced and analyzed using the Winmidi software package (v.2.8, written by J.Trotter, University of Cardiff, UK).
In general terms: In flow cytometry, cells or beads pass a laser one at a time.

A further series concerns Molt-3 T-cells. Description: cells. Type of series: cell-based, human. As for the experimental part:
(§1) The cytotoxicity of MTX-peptide conjugates was evaluated in different cell lines, lincluding Molt-3 and L1210 T-cells, and KB epithelial cells. […] After 72 h of growth, the relative numbers of viable cells were determined according to the manufacture's protocols for measuring cytotoxicity using a Dojindo Cytotoxicity Assay Cell counting Kit-8 (CCK-8). To measure the cell viability, 10 μL of CCK-8 was added to each well and the plate was incubated for 4 h. After incubation, the absorbance at 450 nm was measured using a UV plate reader. Cell growth in the presence of different drug concentrations was calculated relative to the value obtained in the absence of the drug. […] Serial dilutions of compounds were prepared in un-supplemented medium, and 110 μL of drug solution was aliquoted in duplicate into 900 μL cell suspensions. Control flasks were treated with 110 μL of un-supplemented medium. Cells were incubated under standard conditions for 48 h, sufficient to allow control cells to divide approximately four times. Growth inhibition was determined by counting the cells on a Z2 model Coulter Counter (Coulter Electronics Ltd, Luton, Beds, UK). The IC50 values were calculated using Graphpad Prism software (Graphpad Software, San Diego, Calif.). KB MTT Assay: KB cells were seeded in Falcons® 96 well plates (Becton-Dickinson Labware Europe, France) at a density of 1,500 cells/well in a volume of 0.18 mL culture medium and incubated under standard culture conditions for 24 h after seeding to allow entry into the exponential phase of cell growth. […] In each assay condition, control cells were treated with 20 μL of un-supplemented medium instead of drug. Cells were incubated for 96 h to allow control cells to divide approximately four times before cell viability was determined by MTT assay.

The subject of series [2] is collagen induced rheumatoid arthritis (CIA). Nature of the series: collagen induced rheumatoid arthritis (CIA) animal model. Type of series: in vivo, mice. The following applies: for mice showing signs of joint eburnation: histopathologic examination; for Total joint damage (TJD): sum of histopathology scores (0 to 3) for each limb; for arthritis index score for the limb: i.v. once daily after day 35. As for the experimental part: […] received intravenous injections of saline while another treatment group received MTX injections (molar equivalent dosage to conjugate) for five days. Clinical arthritis symptoms were evaluated weekly for up to sixteen weeks. Arthritis development was evaluated by several parameters, including the percent of animals acquiring arthritis, arthritis index (AI) score of limbs, changes in paw-volumes and histologic score for the joint.
Mice injected with collagen adjuvant developed pronounced inflammation of the joints, as evidenced by swelling and erythema. […] Total joint damage (TJD) was calculated as the sum the scores for each limb assigned by the pathologist on a scale of 0 to 3 (where 0 is no change and 3 is gross histological change).

Series [3] deals with L1210 mouse leukemia cells. Nature of the series: cells. Type of series: cell-based. Here is the method: as §1
A further series relates to IL-6 production. Nature of the series: IL-6 production in TNF-α stimulated HCAEC monolayers. The conditions noted are these: 0.001-100 μM, 24 h. Type of series: cell-based. As for the experimental part:
The cell monolayers were cultured in vitro with the test compounds (0.001 to 100 μM) in the presence of TNF-α for 24 h. Results are expressed as the percentage of cytokine relative to the positive control or non-treated monolayers (the baseline 100% cytokine production. The control levels (mean±SE) were as follows: IL-6: 3.4±0.17 ng/mL, IL-8: 199.5±9.13 ng/mL.
It is well known that some anti-inflammatory agents can modulate the secretion of inflammatory cytokines. […] MTX-peptide(s) only begins to effectively reduce the IL-8 production at ≧0.1 μM. At ≦1 μM, neither cLAB.L nor cLBE.L affected the IL-8 production (FIG. 8B).

Another series concerns the target T1, Thymidine synthase (TS) (Mus musculus, UniProt P07607).
T1 construct: endogenous in cells; host or cells: L1210-1565 mouse leukemia cells
Type of series: cell-based.

The next series addresses T2, LFA-1 (Homo sapiens, UniProt P20701).
T2 construct: endogenous in cells
Description: binding to LFA-1 on Molt-3 T-cells (reduction of FITC anti-CD11a antibody binding, flow cytometry). The following applies: 1, 10 or 100 μM, 45 min, 4° C. Here is the method: The binding of MTX-peptide conjugates to LFA-1 in response to LFA-1 activation was evaluated. As necessary, cells were activated with 10% v/v phorbol 12-myristate-13-acetate (PMA) containing medium to a final concentration of 2 μM PMA and incubated for 16 h. […] T-cells were centrifuged for 3 min at 1800 rpm, the supernatant was decanted by flicking off excess liquid, and the cells were re-suspended in 500 μL of PBS. The cells were then re-centrifuged, supernatant was removed, and cells were re-suspended again in 150 μL of PBS/BSA 1%. Next, 50 μL of an FITC-labeled anti-CD11a antibody (clone 38, 10 μg/L) was added and incubated for 45 min at 4° C. followed by washing. After the 45 min of incubation with FITC-labeled antibody, cell samples were transferred to Eppendorf tubes and centrifuged at 3000 g for 3 min. The supernatant was decanted, and the pellet was washed twice with 10 mM HEPES/PBS. The cells were then fixed with ice-cold 2% w/v paraformaldehyde/PBS for 20 min. Samples were analyzed using a Becton-Dickinson FACScan flow cytometer with 3.2.1 fl software for data analysis and acquisition.

T1 sequence (P07607 whole entry): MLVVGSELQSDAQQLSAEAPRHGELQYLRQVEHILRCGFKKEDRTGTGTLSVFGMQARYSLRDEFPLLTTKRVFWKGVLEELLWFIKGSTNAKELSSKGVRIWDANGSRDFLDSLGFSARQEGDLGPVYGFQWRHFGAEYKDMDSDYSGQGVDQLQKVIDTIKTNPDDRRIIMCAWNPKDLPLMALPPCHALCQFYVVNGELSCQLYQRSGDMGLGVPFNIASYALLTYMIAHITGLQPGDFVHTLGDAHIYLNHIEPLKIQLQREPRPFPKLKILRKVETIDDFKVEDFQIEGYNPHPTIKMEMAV
T2 sequence (P20701 26-1170): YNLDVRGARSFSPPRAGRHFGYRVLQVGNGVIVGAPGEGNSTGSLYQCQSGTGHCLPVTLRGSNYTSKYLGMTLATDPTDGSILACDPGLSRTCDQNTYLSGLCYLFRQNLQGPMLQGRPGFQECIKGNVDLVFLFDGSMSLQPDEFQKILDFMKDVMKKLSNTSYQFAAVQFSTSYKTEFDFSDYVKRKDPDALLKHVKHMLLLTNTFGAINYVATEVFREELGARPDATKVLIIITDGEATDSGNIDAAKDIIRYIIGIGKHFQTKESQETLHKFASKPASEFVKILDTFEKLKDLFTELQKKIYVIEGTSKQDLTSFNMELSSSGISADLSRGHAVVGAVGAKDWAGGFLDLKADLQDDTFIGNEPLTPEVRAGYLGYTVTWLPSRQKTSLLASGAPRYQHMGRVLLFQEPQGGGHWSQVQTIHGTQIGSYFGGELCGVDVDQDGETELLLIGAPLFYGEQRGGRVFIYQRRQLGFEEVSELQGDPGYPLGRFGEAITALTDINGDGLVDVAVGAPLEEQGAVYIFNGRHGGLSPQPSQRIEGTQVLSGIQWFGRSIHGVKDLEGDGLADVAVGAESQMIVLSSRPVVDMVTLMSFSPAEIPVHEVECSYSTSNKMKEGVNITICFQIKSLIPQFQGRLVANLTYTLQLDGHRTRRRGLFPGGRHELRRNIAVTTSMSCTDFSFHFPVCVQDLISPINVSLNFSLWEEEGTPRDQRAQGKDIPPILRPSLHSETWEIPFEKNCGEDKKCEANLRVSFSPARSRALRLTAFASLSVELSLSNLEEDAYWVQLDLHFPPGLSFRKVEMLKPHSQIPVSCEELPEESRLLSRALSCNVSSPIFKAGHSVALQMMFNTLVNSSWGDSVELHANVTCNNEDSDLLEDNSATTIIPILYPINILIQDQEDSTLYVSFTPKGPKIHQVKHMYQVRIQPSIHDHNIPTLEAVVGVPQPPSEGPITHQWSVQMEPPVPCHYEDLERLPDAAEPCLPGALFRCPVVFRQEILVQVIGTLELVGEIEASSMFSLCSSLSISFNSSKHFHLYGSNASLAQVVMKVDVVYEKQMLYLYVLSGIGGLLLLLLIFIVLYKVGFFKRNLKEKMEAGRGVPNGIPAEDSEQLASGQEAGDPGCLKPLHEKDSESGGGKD
T2 sequence (P05107 23-769 partner): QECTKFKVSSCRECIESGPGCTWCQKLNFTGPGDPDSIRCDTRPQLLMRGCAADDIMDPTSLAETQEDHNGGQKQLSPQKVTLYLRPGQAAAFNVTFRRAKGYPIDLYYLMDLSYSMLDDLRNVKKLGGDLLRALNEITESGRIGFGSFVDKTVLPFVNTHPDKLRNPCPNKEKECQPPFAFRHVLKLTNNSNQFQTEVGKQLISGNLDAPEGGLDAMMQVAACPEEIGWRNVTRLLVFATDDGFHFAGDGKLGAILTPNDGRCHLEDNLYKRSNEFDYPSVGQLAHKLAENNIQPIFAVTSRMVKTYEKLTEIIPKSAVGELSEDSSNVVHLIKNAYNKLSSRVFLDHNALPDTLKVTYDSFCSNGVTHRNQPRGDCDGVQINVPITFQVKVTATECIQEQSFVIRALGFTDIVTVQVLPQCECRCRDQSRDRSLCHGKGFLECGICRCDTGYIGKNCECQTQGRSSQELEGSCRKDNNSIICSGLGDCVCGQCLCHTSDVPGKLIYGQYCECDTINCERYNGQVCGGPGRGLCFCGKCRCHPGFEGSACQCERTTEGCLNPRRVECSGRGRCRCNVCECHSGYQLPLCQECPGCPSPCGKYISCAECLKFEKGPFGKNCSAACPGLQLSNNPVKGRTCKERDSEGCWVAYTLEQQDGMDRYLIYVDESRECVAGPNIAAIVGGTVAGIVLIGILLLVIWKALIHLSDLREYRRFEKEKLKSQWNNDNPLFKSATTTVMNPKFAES
Description for Thymidine synthase (TS): An equivalent amount of unsupplemented medium was added to control flasks. On the day of each experiment, a fresh solution of unlabelled deoxyuridine (dUrd) was prepared in deionized H2O (dH2O) and was added to a stock solution of [5-^3H]-dUrd (22 Ci/mmole) to give a concentration of 300 μM and a specific activity of 3.3 Ci/mmole (˜7260 dpm/pmole).
To begin the assay, the 300 μM [5-^3H]-dUrd stock solution was diluted ten fold in deionized H2O and 50 μL of this solution was added to each culture flask to give a final concentration of 0.03 μM. The rate of ^3H2O formation was measured over a 1 h period (20, 40 and 60 min) by removing a 3×0.4 mL aliquot of the cells in culture medium and mixing it with 0.4 mL of ice-cold 1.0 M perchloric acid (PCA; Sigma) in microfuge tubes. […] For each time point, radioactivity was determined by counting each vial on the tritium channel of a Tri-Carb 2000CA Model Liquid Scintillation Analyzer (Canberra Packard, Pangbourne, Berkshire, UK). Background radioactivity was assessed by cooling a flask of untreated cells on ice before the start of each experiment and adding 50 mL of the [5-^3H]-dUrd solution. Aliquots of 3×0.4 mL aliquots of cells in culture medium were added to 1.0 M PCA-containing microfuge tubes and the rate of ^3H2O release was analyzed as described above. […]

Take `CN(Cc1cnc2nc(N)nc(N)c2n1)c1ccc(C(=O)N[C@@H](CCC(=O)O)C(=O)O)cc1` [MTX, methotrexate, reference compound]: the 50% inhibitory concentration (IC50) (usually the concentration that gives 50% inhibition) stood at 0.027 µM in the series on KB epithelial cells (Homo sapiens, Epithelial cell); 0.061 ± 0.02 µM in the series on Molt-3 T-cells (Homo sapiens, MOLT-3, 72 h, read-out: IC50 Molt-3 T-cells); 0.014 ± 0.004 µM in series [3] (Mus musculus, L1210, 48 h, read-out: IC50 L1210 mouse leukemia cells). Moreover, the Ymax in series [1] is on record as 4.30 ± 0.42 × 10^−4. Also, the “time of treatment after which arrest of cells in S phase was seen” value in the series on L1210-1565 cells came to 24 h. Further, the “mice showing signs of joint eburnation” value in series [2] is recorded as 44%. Also, the “Total joint damage (TJD)” value in series [2] is given as 7.4±2.5. In addition, the “block of IL-6 production” value in the series on IL-6 production is “partly block the production of IL-6”.
In the case of `CC(C)C[C@@H]1NC(=O)[C@H](C(C)C)NC(=O)[C@H](CO)NC(=O)CNC(=O)CNC(=O)[C@H](CCCNC(=N)N)NC(=O)[C@@H]2CCCN2C(=O)[C@@H](NC(=O)CC[C@H](NC(=O)c2ccc(N(C)Cc3cnc4nc(N)nc(N)c4n3)cc2)C(=O)O)C(C)(C)SSC[C@@H](C(=O)O)NC(=O)CNC(=O)[C@H]([C@@H](C)O)NC(=O)[C@H](C(C)C)NC1=O` [MTX-cIBR] ({DAMPA-γGlu}-[Pen]PRGGSVLVTGC-OH; disulfide 1-12), the 50% inhibitory concentration (IC50) is > 10 µM in the series on KB epithelial cells, 2.75 ± 0.8 µM with Molt-3 T-cells (72 h) and 5.5 ± 2 µM in series [3] (48 h). In addition, the “ability to inhibit TS after wash-out” value on Thymidine synthase (TS) was “retained more activity than the linear conjugate”. Moreover, the “inhibition of 3H2O production by TS, continuous exposure” value against Thymidine synthase (TS) (3 μM, 4 h incubation) was “inhibited to a similar degree”. Moreover, in [1], the “Km relative to that of MTX” value is listed as ~15 fold. The Ymax in [1] was 4.10 ± 0.18 × 10^−4. The “time of treatment after which arrest of cells in S phase was seen” value with L1210-1565 cells worked out at 36 h. In addition, the “mice showing signs of joint eburnation” value in series [2] is on record as 10%. For the same compound, the “Total joint damage (TJD)” value in series [2] is on record as 4.4±2.1. The “arthritis index score for the limb” value in [2] (week 8) is recorded as “two”; in series [2] (week 12), “zero”. For the same compound, at LFA-1, the “binding to the LFA-1 receptor” value was “specific to the LFA-1 receptor”.
